# Experimental data reported in ChEMBL document CHEMBL1201862, “PubChem BioAssay data set” (2004).
# Several values for one entry are separate records, joined by “and”; a condition that tells them apart may be missing. Equal entries are not always repeated. Activity calls are given as the source filed them.
# What was measured:
# Cytochrome P450 3A4 = Cytochrome P450 3A4 (Homo sapiens, UniProt P08684);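 further: CYP3A4 tested as one member of a cytochrome P450 panel screen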
# [1] = biological target: T1, Corticotropin-releasing factor receptor 2/Corticotropin-releasing factor-binding protein (Homo sapiens, UniProt P24387+Q13324); experiment: activators of CRF receptor 2 with binding protein – uHTS hits, confirmation (AID 602473); assay type: functional; details: read-out: EC50_Mean
# T1 sequence (Q13324 whole entry): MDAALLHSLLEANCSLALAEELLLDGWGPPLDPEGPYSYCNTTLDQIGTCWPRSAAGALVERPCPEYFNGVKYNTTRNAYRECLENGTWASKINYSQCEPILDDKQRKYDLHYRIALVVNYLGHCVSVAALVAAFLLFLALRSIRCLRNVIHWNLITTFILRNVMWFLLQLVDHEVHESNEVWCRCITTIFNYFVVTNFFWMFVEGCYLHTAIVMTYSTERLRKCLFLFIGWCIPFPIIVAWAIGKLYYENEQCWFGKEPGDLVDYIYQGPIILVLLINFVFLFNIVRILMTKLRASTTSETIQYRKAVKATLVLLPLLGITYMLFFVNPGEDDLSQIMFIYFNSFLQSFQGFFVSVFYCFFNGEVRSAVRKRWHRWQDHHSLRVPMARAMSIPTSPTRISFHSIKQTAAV
# T1 sequence (P24387 whole entry): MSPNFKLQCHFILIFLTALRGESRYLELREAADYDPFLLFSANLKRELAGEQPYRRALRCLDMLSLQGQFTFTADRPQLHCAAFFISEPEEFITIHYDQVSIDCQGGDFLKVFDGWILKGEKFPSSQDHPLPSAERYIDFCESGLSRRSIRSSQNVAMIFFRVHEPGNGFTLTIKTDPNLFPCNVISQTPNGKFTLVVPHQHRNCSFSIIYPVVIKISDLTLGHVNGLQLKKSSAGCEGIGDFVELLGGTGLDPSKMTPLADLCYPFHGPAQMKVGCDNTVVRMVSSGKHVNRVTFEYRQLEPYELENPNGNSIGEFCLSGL
# Cytochrome P450 1A2 = biological target: T2, Cytochrome P450 1A2 (Homo sapiens, UniProt P05177);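 further: PubChem cytochrome P450 panel assay, CYP1A2 panel member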
# T2 sequence (P05177 whole entry): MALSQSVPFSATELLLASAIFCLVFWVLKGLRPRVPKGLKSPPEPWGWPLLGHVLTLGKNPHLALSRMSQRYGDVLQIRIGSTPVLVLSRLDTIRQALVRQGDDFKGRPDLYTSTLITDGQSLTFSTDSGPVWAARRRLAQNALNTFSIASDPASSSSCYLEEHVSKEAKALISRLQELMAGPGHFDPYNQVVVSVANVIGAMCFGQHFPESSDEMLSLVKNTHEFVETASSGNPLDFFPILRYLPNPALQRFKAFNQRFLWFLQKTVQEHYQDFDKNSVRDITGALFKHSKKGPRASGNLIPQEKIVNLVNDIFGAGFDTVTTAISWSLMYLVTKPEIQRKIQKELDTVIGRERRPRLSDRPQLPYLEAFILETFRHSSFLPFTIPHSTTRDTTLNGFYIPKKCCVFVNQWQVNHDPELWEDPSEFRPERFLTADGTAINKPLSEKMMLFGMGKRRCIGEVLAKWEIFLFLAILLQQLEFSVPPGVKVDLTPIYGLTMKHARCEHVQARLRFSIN
# [2] = NIH3T3 cell viability loss – ATP luminescence, mouse fibroblasts, counter-screen, dose response (AID 2010); assay type: functional, cell-based;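 further: cells exposed to compound for about 90 hours before reading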
# [3] = Trypanosoma cruzi growth suppression in host cells – NIH3T3 host cells, beta-gal luminescence, confirmation (AID 2044); assay type: functional, cell-based;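 further: intracellular parasites grown in NIH/3T3 mouse fibroblasts as host cells; luminescent beta-galactosidase reporter signal from transgenic T. cruzi replicating inside host cells; inhibitors lower the luminescence signal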
# Cytochrome P450 2C9 = Cytochrome P450 2C9 (Homo sapiens, UniProt P11712)
# [4] = system: Streptococcus sp. 'group A'; experiment: Streptococcus pyogenes SK(-)GAS viability under kanamycin – luminescence, BacTiterGlo, confirmation, counter-screen for streptokinase expression inhibitor project, dose response (AID 1900); assay type: functional, organism-based
# Streptococcus = experiment: GAS UMAA2166 growth inhibition – luminescence, BacTiterGlo, counter-screen for streptokinase expression inhibitor project, dose response (AID 1915); assay type: functional, organism-based;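 further: potency for reduction of bacterial viability or growth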
# Sequence of Cytochrome P450 3A4 (P08684 whole entry): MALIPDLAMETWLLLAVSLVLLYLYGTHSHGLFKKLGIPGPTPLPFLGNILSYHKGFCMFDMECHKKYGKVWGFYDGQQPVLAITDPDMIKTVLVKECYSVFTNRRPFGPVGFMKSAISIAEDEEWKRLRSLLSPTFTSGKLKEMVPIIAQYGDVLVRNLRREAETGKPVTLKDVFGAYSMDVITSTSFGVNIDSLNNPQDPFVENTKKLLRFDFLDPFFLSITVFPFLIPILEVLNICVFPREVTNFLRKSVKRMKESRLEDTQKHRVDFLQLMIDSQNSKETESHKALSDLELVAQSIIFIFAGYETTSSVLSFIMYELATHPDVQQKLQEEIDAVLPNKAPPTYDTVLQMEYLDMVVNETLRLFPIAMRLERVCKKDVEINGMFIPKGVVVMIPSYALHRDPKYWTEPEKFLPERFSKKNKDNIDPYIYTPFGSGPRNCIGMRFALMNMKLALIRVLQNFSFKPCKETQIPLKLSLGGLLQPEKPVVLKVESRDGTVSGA
# Sequence of Cytochrome P450 2C9 (P11712 whole entry): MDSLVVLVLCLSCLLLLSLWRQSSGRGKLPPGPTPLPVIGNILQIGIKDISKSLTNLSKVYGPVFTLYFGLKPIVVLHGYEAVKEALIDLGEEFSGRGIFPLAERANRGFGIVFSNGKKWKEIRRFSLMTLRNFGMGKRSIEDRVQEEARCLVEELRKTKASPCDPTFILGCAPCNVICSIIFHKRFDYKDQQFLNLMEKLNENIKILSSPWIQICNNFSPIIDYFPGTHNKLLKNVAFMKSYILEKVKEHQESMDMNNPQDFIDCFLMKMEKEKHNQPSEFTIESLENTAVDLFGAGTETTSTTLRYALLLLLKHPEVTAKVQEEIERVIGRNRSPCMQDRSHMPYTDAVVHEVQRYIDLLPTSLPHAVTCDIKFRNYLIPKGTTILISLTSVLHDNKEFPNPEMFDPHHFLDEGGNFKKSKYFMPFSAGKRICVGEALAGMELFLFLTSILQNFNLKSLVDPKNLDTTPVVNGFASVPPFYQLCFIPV
compound,measurement,setting,value
C=CCn1c(NCc2ccccc2)nc2ccccc21,AC50,Cytochrome P450 3A4,25.1 µM (inconclusive)
CC(C)C[C@H]1CN=C(Nc2ccccc2)N1CCc1cccc(F)c1,EC50,[1],6.43 µM (active)
N[C@H](Cc1ccc(N(CCCl)CCCl)cc1)C(=O)O,AC50,Cytochrome P450 1A2,15.8 µM (inconclusive)
CCN(CC)c1ccc(N2C(=O)/C(=C\c3cccnc3)SC2=S)cc1,AC50,Cytochrome P450 1A2,1.41 µM (inconclusive)
COc1ccc(OC)c(Nc2nc(-c3sc(NC(=O)c4ccccc4)nc3C)cs2)c1,AC50,Cytochrome P450 3A4,28.2 µM (inconclusive)
CC(C)N(CCNC(=O)c1nn(Cc2ccccc2)c(=O)c2ccccc12)C(C)C,EC50,[2],> 60 µM (not active)
same,EC50,[3],1.46 µM (active)
Cc1noc(N)c1C(=O)Nc1ccc(F)cc1,AC50,Cytochrome P450 2C9,3.98 µM (inconclusive)
N#Cc1cc(C(=O)c2ccccc2O)cn(-c2ccc(Cl)cc2)c1=O,EC50,[1],> 53 µM (inactive)
Cc1ccc(/N=N\c2ccc(N)cc2C)c(S(N)(=O)=O)c1,AC50,Cytochrome P450 3A4,3.98 µM (inconclusive)
CC(C)(C)NS(=O)(=O)c1ccc(NS(=O)(=O)c2ccc(F)cc2)cc1,AC50,Cytochrome P450 3A4,15.8 µM (inconclusive)
COc1cccc(-c2cncnc2NCCN2CCOCC2)c1,AC50,Cytochrome P450 1A2,15.8 µM (inconclusive)
same,AC50,Cytochrome P450 3A4,3.16 µM (inconclusive)
C/C(=N/NC(=O)c1ccc(C)s1)c1cccc(NC(=O)COc2ccc(Cl)cc2C)c1,AC50,Cytochrome P450 3A4,1.12 µM (inconclusive)
Cc1ccc2nc(NC(=O)C3CCN(S(=O)(=O)c4cc([N+](=O)[O-])ccc4Cl)CC3)sc2c1,EC50,[2],> 60 µM (not active)
same,EC50,[3],0.528 µM (active)
O[C@H](CCCN1CCN(c2ncc(F)cn2)CC1)c1ccc(F)cc1,AC50,Cytochrome P450 2C9,12.6 µM (inconclusive)
same,AC50,Cytochrome P450 1A2,31.6 µM (inconclusive)
O=C(NCCCN1CCc2ccccc2C1)C1CCN(S(=O)(=O)N2CCCC2)CC1,AC50,Cytochrome P450 3A4,20 µM (inconclusive)
Cc1cccc(OCCCCCn2ccnc2)c1,EC50,[2],> 30 µM (not active)
same,EC50,[3],0.443 µM (active)
N[C@H](CCCP(=O)(O)O)C(=O)O,AC50,Cytochrome P450 1A2,25.1 µM (inconclusive) and 31.6 µM (inconclusive)
COc1ccc(C(=O)c2ccc(N3CCN(C(=O)c4ccc(F)cc4)CC3)c(F)c2)cc1Br,EC50,[2],8.95 µM (active)
same,EC50,[3],2.37 µM (active)
CC(C)N1CCc2c(sc(NC(=O)CCc3ccccc3)c2C(N)=O)C1,EC50,[1],> 53 µM (inactive)
O=c1c(-c2ccccc2)nc2cnc(Oc3ccccc3)nc2n1Cc1cccs1,AC50,Cytochrome P450 2C9,3.16 µM (inconclusive)
same,AC50,Cytochrome P450 1A2,2.51 µM (inconclusive)
CCN1CCc2c(sc(NC(=S)NC(=O)c3ccccc3)c2C#N)C1,AC50,Cytochrome P450 1A2,14.1 µM (inconclusive)
same,AC50,Cytochrome P450 3A4,20 µM (inconclusive)
COc1ccccc1-c1cncnc1N1CCN(C)CC1,AC50,Cytochrome P450 1A2,12.6 µM (inconclusive)
CCN(CC)P(=O)(Nc1ccc(SC(F)F)cc1)c1ccc(N(C)C)cc1NC(=O)c1ccco1 (stereo unspecified),EC50,[2],> 60 µM (not active)
same,EC50,[3],1.99 µM (active)
C=CCSc1nnc(NC(=O)COc2ccc3ccccc3c2)s1,AC50,Cytochrome P450 2C9,8.91 µM (inconclusive)
NNS(=O)(=O)c1cc(C(=O)O)cc(C(=O)O)c1,AC50,Cytochrome P450 1A2,0.001 µM (inconclusive)
COc1ccc2c3c([nH]c2c1)C(C)=NCC3,AC50,Cytochrome P450 3A4,2.51 µM (inconclusive)
N#Cc1c(Nc2cccc(F)c2)sc2c(O)cc(O)nc12,EC50,[4],1.19 µM (active)
same,EC50,Streptococcus,5.71 µM (active)
CCCCN1C(=O)NC(=O)/C(=C(/C)NCCCN(CC)CC)C1=O,EC50,[2],> 60 µM (not active)
same,EC50,[3],1.66 µM (active)
Cc1noc(C)c1-c1ccc2ncnc(NC3CCNCC3)c2c1,AC50,Cytochrome P450 1A2,31.6 µM (inconclusive)
O=C(Nc1ccccc1)Nc1ccccc1-n1ccnc1,EC50,[2],> 60 µM (not active)
same,EC50,[3],2.53 µM (active)
Cc1cnc(CNc2ncncc2-c2cccc(NS(C)(=O)=O)c2)cn1,AC50,Cytochrome P450 1A2,31.6 µM (inconclusive)
O=C(Nc1cccnc1Cl)C1c2ccccc2Oc2ccccc21,AC50,Cytochrome P450 1A2,3.16 µM (inconclusive)
same,AC50,Cytochrome P450 3A4,14.1 µM (inconclusive)
CC(C)CN1CCC2(CC1)CCN(C(=O)c1cc(C(F)(F)F)cc(C(F)(F)F)c1)CC2,AC50,Cytochrome P450 2C9,12.6 µM (inconclusive)
CS(=O)(=O)N1CC(C(=O)NC2CC2)Oc2ccc(Cl)cc21 (stereo unspecified),AC50,Cytochrome P450 2C9,10 µM (inconclusive)
same,AC50,Cytochrome P450 3A4,25.1 µM (inconclusive)
S=C(Nc1ccc2c(c1)Cc1ccccc1-2)Nc1ccc2c(c1)Cc1ccccc1-2,AC50,Cytochrome P450 3A4,3.98 µM (inconclusive)
CCc1ccc(OCCOCC(O)CNC(C)(C)C)cc1 (stereo unspecified),EC50,[1],> 53 µM (inactive)
O=C1S/C(=C/c2ccc(N3CCOCC3)o2)C(=O)N1Cc1ccc(F)cc1,EC50,[1],5.79 µM (active)
same,AC50,Cytochrome P450 3A4,7.94 µM (inconclusive)
CC(C)(C)C(=O)Nc1sc2c(c1C#N)CCN(Cc1ccccc1)C2,EC50,[1],10.2 µM (active)
O=C(c1ccc2c(=O)n(CC3CCCO3)c(=S)[nH]c2c1)N1CCN(c2ccccc2)CC1 (stereo unspecified),AC50,Cytochrome P450 2C9,7.94 µM (inconclusive)
same,AC50,Cytochrome P450 3A4,7.08 µM (inconclusive)
CCOC(=O)N1CCN(C(=O)CC(C(=O)N2CCc3ccccc32)n2ccnc2)CC1 (stereo unspecified),EC50,[2],> 60 µM (not active)
same,EC50,[3],1.82 µM (active)
Cc1onc(C(=O)/C=C/N(C)C)c1C(=O)Nc1nccs1,AC50,Cytochrome P450 1A2,0.631 µM (inconclusive)
Cc1ccccc1-c1nc(NC2CCNCC2)c2ccccc2n1,AC50,Cytochrome P450 1A2,20 µM (inconclusive)
Cn1cnc([N+](=O)[O-])c1Sc1nc(N)nc2c1ncn2Cc1ccccc1,AC50,Cytochrome P450 1A2,3.16 µM (inconclusive)
N#Cc1ccc(CN2CCCC3(CCN(C(=O)Oc4ccccc4)CC3)C2)cc1,AC50,Cytochrome P450 2C9,39.8 µM (inconclusive)
same,AC50,Cytochrome P450 3A4,15.8 µM (inconclusive)
COc1ccc(Br)cc1S(=O)(=O)Nc1nc[nH]n1,EC50,[4],> 150 µM (not active)
same,EC50,Streptococcus,> 150 µM (not active)
CCOc1cc(-c2nc(-c3cc([N+](=O)[O-])ccc3C)c(-c3ccccc3)[nH]2)ccc1O,EC50,[2],> 60 µM (inconclusive)
same,EC50,[3],2.7 µM (active)
CC(C(=O)Nc1ccccc1C(=O)O)n1c(C(F)(F)F)nc2ccccc21 (stereo unspecified),EC50,[2],> 60 µM (inconclusive)
same,EC50,[3],9.95 µM (active)
Cc1ccc(/C=N\NC(=O)c2ccc(Cn3cc(Br)c([N+](=O)[O-])n3)o2)o1,EC50,[2],> 60 µM (not active)
same,EC50,[3],0.878 µM (active)
Cn1ncc(C#N)c1NC(=O)C1CC(c2ccc(Cl)cc2)=NO1 (stereo unspecified),AC50,Cytochrome P450 2C9,12.6 µM (inconclusive)
same,AC50,Cytochrome P450 1A2,31.6 µM (inconclusive)
same,AC50,Cytochrome P450 3A4,20 µM (inconclusive)
CC1(C)CSC(NCc2ccccc2)=N1,EC50,[1],2.84 µM (active)
COc1ccc(C(=O)NC2CCN(C(S)=Nc3cccc(C)c3)CC2)cc1,AC50,Cytochrome P450 2C9,25.1 µM (inconclusive)
O=C(O)CCC(=O)N1CCN(c2ccccn2)CC1,AC50,Cytochrome P450 2C9,0.891 µM (inconclusive)
same,AC50,Cytochrome P450 3A4,3.55 µM (inconclusive)
COc1ccc(-c2[nH]nc(C)c2-c2ccc(Cl)cc2)c(O)c1,EC50,[4],9.86 µM (active)
same,EC50,Streptococcus,11.1 µM (active)
O=C(c1cc(-c2ccccc2)nc2ccccc12)N1CCC2(CC1)OCCO2,AC50,Cytochrome P450 3A4,25.1 µM (inconclusive)
Cc1ccc(S(=O)(=O)O[C@H]2C[C@@H](C(C)(C)C)CC[C@@H]2c2ccccc2)cc1,AC50,Cytochrome P450 3A4,2 µM (inconclusive)
CCOC(=O)CC(NC(=O)c1ccc(C)cc1)c1ccc(C)cc1 (stereo unspecified),AC50,Cytochrome P450 3A4,25.1 µM (inconclusive)
CC1CC(C)CN(CCCNC(=O)C2CCCN(c3nnc(N4CCCC4=O)s3)C2)C1 (stereo unspecified),AC50,Cytochrome P450 3A4,28.2 µM (inconclusive)
COc1ccccc1CN1CC[C@@]2(CCCN(C(=O)c3ccco3)C2)C1,AC50,Cytochrome P450 1A2,39.8 µM (inconclusive)
CCC1CCCCN1S(=O)(=O)c1ccc(C(=O)Nc2nnc(C3=COCCO3)o2)cc1 (stereo unspecified),EC50,[4],4.61 µM (active)
same,EC50,Streptococcus,10.7 µM (active)
